In patent publication US20210369652A1, “Nonhormonal Unisex Contraceptives” (The Regents of the University of California, priority 2019, published 2021):
Entries after “also recorded” stand apart in the source; their conditions may differ.

Tests used:
[1] = system: human sperm; assay: Human sperm basal beat frequency; format: cell-based; conditions: for sperm beat frequency / motility, result in words: human sperm, 1 μM NEN
Experimental: (§1) A) Human sperm were purified by swim-up method and their basal beat frequency (BF, in Hz) was measured as described in (Mannowetz, N., Naidoo, N. M., Choo, S. A., Smith, J. F. & Lishko, P. V. Slol is the principal potassium channel of human spermatozoa. eLife 2, e01009, doi:10.7554/eLife.01009 (2013)) in control HS solution ((1); in the presence of vehicle control ((2); […]. X's represent the mean of the sample, and dots represent individual data points. B) Human sperm mitochondrial membrane potential (MMP) assessment. Human sperm were incubated for 15 minutes in the presence of 0.1% DMSO (vehicle control), in the presence of 1 μM NEN or 0.75 μM […]. Samples from each condition (at least 100 of sperm midpieces per condition) were then assessed for fluorescence intensity measured with 45 nM MitoRed, which is a cell membrane permeable rhodamine-based dye. MitoRed localizes to mitochondria, and emits red fluorescence. The interaction of Mito Red with mitochondria depends on the membrane potential of the mitochondria. Uncoupled mitochondria emit less fluorescence. Data are standard boxplots, as in (A). C) Effect of sMU on human capacitated sperm hyperactivated motility. Cells were capacitated as described (11) for 4 hours. 4 μM Progesterone was added 2 minutes before imaging to trigger hyperactivation (HA). Cells were assessed as either Hyperactivated or Not Hyperactivated. N>45 cells. Error bars represent 95% CI calculated through the Wilson/Brown method.

[2] = system: human capacitated sperm; assay: Hyperactivated motility of capacitated human sperm triggered by progesterone; format: cell-based; conditions: capacitated 4 hours; 4 μM progesterone; concentrations as low as 1 μM
Experimental: as §1, with “4 μM Progesterone was added 2 minutes before imaging to trigger hyperactivation (HA).” left out, “N>45 cells.” left out

[3] = system: human sperm mitochondria; assay: Human sperm mitochondrial membrane potential (MMP) assessment with MitoRed; format: cell-based; conditions: 15 minutes incubation, 1 μM NEN or 0.75 μM BAM15, 45 nM MitoRed fluorescence
Experimental: Samples from each condition (at least 100 of sperm midpieces per condition) were then assessed for fluorescence intensity measured with 45 nM MitoRed, which is a cell membrane permeable rhodamine-based dye. MitoRed localizes to mitochondria, and emits red fluorescence. The interaction of Mito Red with mitochondria depends on the membrane potential of the mitochondria. Uncoupled mitochondria emit less fluorescence. Data are standard boxplots, as in (A). C) Effect of sMU on human capacitated sperm hyperactivated motility. Cells were capacitated as described (11) for 4 hours. 4 μM Progesterone was added 2 minutes before imaging to trigger hyperactivation (HA). Cells were assessed as either Hyperactivated or Not Hyperactivated. N>45 cells. Error bars represent 95% CI calculated through the Wilson/Brown method.

[4] = target: T1, ANT (Mus musculus, UniProt P48962); assay: Whole-IMM patch-clamp recording of H+ current (IH) in mitoplasts; format: biochemical, mice; conditions: for ANT-mediated H+ current (IH), regulators: skeletal muscle mitoplast, 2 μM AA, then 1 mM bath ADP, step from 0 to -160 mV
T1 construct: functional analysis of mitochondrial ion channels and transporters in their native membrane environment; from tissue; host or cells: heart mitoplasts (WT and ANT1-/- mice); skeletal muscle mitoplasts
T1 sequence (P48962 2-298): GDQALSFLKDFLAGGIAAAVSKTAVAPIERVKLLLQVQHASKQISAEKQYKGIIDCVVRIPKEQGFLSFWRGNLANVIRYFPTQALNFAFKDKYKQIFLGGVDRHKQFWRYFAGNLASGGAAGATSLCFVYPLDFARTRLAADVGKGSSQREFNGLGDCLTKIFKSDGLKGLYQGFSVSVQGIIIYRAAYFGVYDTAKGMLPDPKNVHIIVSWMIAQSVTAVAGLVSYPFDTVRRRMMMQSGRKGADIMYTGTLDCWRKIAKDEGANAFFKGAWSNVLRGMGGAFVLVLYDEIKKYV
Source text: FIG. 3A-B is a pair of schematic diagrams depicting a mitochondrial patch-clamp. (A) Preparation of mitoplasts (vesicles of the whole IMM): (1) Isolation of mitochondria from cell lysate by centrifugation; (2) OMM removal using a low-pressure French press; (3) isolated mitoplasts in a KCl solution. Remnants of the OMM (arrow) are attached to the IMM. (B) Patch-clamp recording from mitoplasts. After formation of the gigaohm seal (mitoplast-attached configuration), the membrane patch under the pipette can be destroyed by high-amplitude voltage pulses to form a whole-mitoplast configuration for recording currents (I) across the whole IMM. Alternatively, the patch pipette can be withdrawn from the mitoplast to form an inside-out mode for recording single-channel activity.
FIG. 4 is a series of graphs (upper panels) and a schematic diagram (lower panel) showing regulators of ANT-mediated H^+ current (IH). […] Control current is shown in black. Middle panel: IH time course of the left panel. Skeletal muscle mitoplast. IH amplitudes were measured upon stepping from 0 to −160 mV. Right panel: ADP inhibition of IH in points 2 and 3. Remaining IH measured at −160 mV is shown as a percentage of control, n=8. Explanation of transient IH inhibition by cytosolic adenine nucleotides. ANT in c-state, with fatty acid (FA) anion in the translocation pathway, mediates IH (I). Cytosolic ADP^3− binds in c-state and expels FA anion/blocks translocation pathway, leading to IH inhibition (2). Upon ANT conformation change, ADP dissociates into matrix (pipette) solution (2 and 3). FA anion re-associates with ANT in m-state, restoring IH (4 and 5). Cytosolic ADP cannot inhibit IH while AAC is in m-state (5). Preliminary data from (Bertholet, A. M. Chouchani., E. T.; Kazak, L.; Angelin, A.; Fedorenko, A.; Long, J. Z.; Vidoni, S.; Garrity, R.; Cho, J.; Terada, N.; Wallace, D.C.; Spiegelman, B. M.; and Kirichok, Y. Proton Transport is an Integral Function of the Mitochondrial ADP/ATP Carrier Nature July; 571(7766):515-520 (2019)).
Right panel: IH current densities at −160 mV for WT and ANT1^−/− mitoplasts. b, Representative currents induced by 50 μM DNP in WT and ANT1^−/− mitoplasts of heart. Right panel: IH current densities induced by 50 and 200 μM DNP at −160 mV in WT and ANT1^−/− mitoplasts.
We employed direct patch-clamp recording from vesicles of the whole intact inner mitochondrial membrane (IMM; so-called mitoplasts, FIG. 3), which allow high-resolution functional analysis of mitochondrial ion channels and transporters in their native membrane environment^10,36,37. […]
We recorded DNP-induced IH in heart of ANT1-deficient mice (ANT1 is the dominant isoform of ANT in this tissue).

ANT-mediated H+ current (IH), regulators [4]	Compound	sperm beat frequency / motility, result in words [1]	hyperactivation (hyperactivated motility) [2]	sperm mitochondrial uncoupling (sMU) as assessed by mitochondrial depolarization [3]	also measured
	O=C(Nc1ccc([N+](=O)[O-])cc1Cl)c1cc(Cl)ccc1O [niclosamide]	significantly decreases sperm motility	inhibited hyperactivation	uncouple sperm mitochondria	sperm beat frequency ([1]; human sperm purified by swim-up, decreased from 14 Hz, concentrations as low as 1 μM): 6 Hz; sperm mitochondrial uncoupling (sMU) as assessed by mitochondrial depolarization ([3]; listed as Niclosamide): uncouples mitochondria
transient inhibition	Nc1ncnc2c1ncn2[C@@H]1O[C@H](COP(=O)(O)OP(=O)(O)O)[C@@H](O)[C@H]1O [ADP]				
	O=[N+]([O-])c1ccc(O)c([N+](=O)[O-])c1 [DNP, 2,4-dinitrophenol]			uncouple sperm mitochondria	proton leak (IH) via ANT induced by uncoupler ([4]; whole-IMM patch-clamp, 50 and 200 μM DNP, heart mitoplasts WT and ANT1-/-, -160 mV): strongly and specifically activates proton leak via ANT; also recorded: primarily depends on ANT
	C=C1[C@@H]2CC[C@H]3[C@]4(C)C[C@H](O[C@@H]5O[C@H](CO)[C@@H](OS(=O)(=O)O)[C@H](OS(=O)(=O)O)[C@H]5OC(=O)CC(C)C)CC(C(=O)O)(C(=O)O)[C@H]4CC[C@]3(C2)[C@H]1O [CATR, carboxyatractyloside]				inhibition of IH mediated by ANT ([4]; whole-IMM patch-clamp, classical ANT inhibitor): blocked
	NCCO.O=C(Nc1ccc([N+](=O)[O-])cc1Cl)c1cc(Cl)ccc1O [NEN, niclosamide ethanolamine]	significantly decreases	significantly decreases	uncouples human sperm mitochondria; also recorded: strong sMU	
activated	CCCCC/C=C\C/C=C\C/C=C\C/C=C\CCCC(=O)O [arachidonic acid]				
